In general, pIC50 refers to the negative decadic logarithm of the IC50, by convention in mol/L. The low end stands for a large IC50, the high end for a small IC50.

pIC50: −log10 of the molar value.

IC50 data for 24 compounds are collected here from BindingDB's records for doi:10.1021/jm00105a069 (Schering-Plough, 1991).

This experiment in a line: Concentration required to cause 50% inhibition of platelet activating factor (PAF)-induced platelet aggregation of human platelet rich plasma when challenged with 25 nM PAF.
`CCCC(=O)N1CCC(=C2c3ccc(Cl)cc3CCc3cccnc32)CC1` gave a negative-log IC50 (pIC50) of 4.48.
Compound `CC(=O)N1CCC(=C2c3ccc(F)cc3CCc3cccnc32)CC1` had a negative-log IC50 (pIC50) of 6.17.
`CC(=O)N1CCC(=C2c3ccc(Br)cc3CCc3cccnc32)CC1`: the negative-log IC50 (pIC50) was 6.09.
As to `COc1ccc2c(c1)CCc1cccnc1C2=C1CCN(C(C)=O)CC1`, the pIC50 was 5.47.
As to `CCC(=O)N1CCC(=C2c3ccc(Cl)cc3CCc3cccnc32)CC1`, the pIC50 is 5.62.
The result for `CC(=O)N1CCC(=C2c3ccc(Cl)cc3CCc3cccnc32)CC1` reads 6.21.
Regarding `CC(=O)C1CCC(=C2c3ccc(Cl)cc3CCc3cccnc32)CC1` (centres undefined), the pIC50 was < 4.30.
Consider `COc1cc([C@@H]2CC[C@@H](c3cc(OC)c(OC)c(OC)c3)O2)cc(OC)c1OC`, for which the pIC50 was 5.82.
In the case of `CC(=O)N1CCC(=C2c3cc(Cl)ccc3CCc3cccnc32)CC1`, the pIC50 was 5.47.
With `CC(=O)N1CCC(=C2c3cc(F)c(F)cc3CCc3cccnc32)CC1` the figure was 6.00; with `CC(=O)N(C)CC/C=C1\c2ccc(Cl)cc2CCc2cccnc21`, < 4.30.
As for `CC(=O)N1CCC(=C(c2ccc(Cl)cc2)c2ccccn2)CC1`, the pIC50 is 4.55.
The result for `CC(=O)N1CCC(=C2c3ccc(O)cc3CCc3cccnc32)CC1` reads 5.06.
The compound `O=CN1CCC(=C2c3ccc(Cl)cc3CCc3cccnc32)CC1` showed a negative-log IC50 (pIC50) of 4.89.
Consider `CC(=O)N1CCC(=C2c3cc(Cl)c(Cl)cc3CCc3cccnc32)CC1`, for which the negative logarithm of the IC50 (pIC50) was 5.74.
Take `CC(=O)N(C)CC/C=C1/c2ccc(Cl)cc2CCc2cccnc21`: the negative-log IC50 (pIC50) was < 4.30.
The result for `CC(=O)N1CCC(=C2c3ccccc3CCc3ccccc32)CC1` reads 4.39; that for `O=C(c1ccccc1)N1CCC(=C2c3ccc(Cl)cc3CCc3cccnc32)CC1`, < 4.30.
The result for `CC(=O)N1CCC(=C2c3cc(F)ccc3CCc3cccnc32)CC1` reads 6.09; that for `CN1CCC(=C2c3ccccc3CCc3cccnc32)CC1`, < 4.30.
With `CC(C)(C)C(=O)N1CCC(=C2c3ccc(Cl)cc3CCc3cccnc32)CC1`, the negative logarithm of the IC50 (pIC50) was < 4.30.
In turn, `CC(=O)N1CCC(=C2c3ccccc3CCc3cccnc32)CC1` had a pIC50 of 5.85.
The result for `CN(C)CCC(c1ccc(Cl)cc1)c1ccccn1` (centres undefined) [clorfeniramina] reads < 4.30; that for `CC(=O)N1CCC(=C2c3ccc(C)cc3CCc3cccnc32)CC1`, 6.00.
